The values below come from US20240400546A1, “COMPOUNDS AND USES THEREOF” (JANSSEN PHARMACEUTICA NV, priority 2016, published 2024).

Read-outs that look alike come from different tables or passages of the source.

One experiment deals with T1, Ole1 (Saccharomyces cerevisiae, UniProt P21147).
T1 construct: expressed in transfected cells; host or cells: S. cerevisiae ole1Δ strain (W303 pdr1Δ pdr3Δ background), plasmid pRS316 with TDH3 promoter and CYC1 terminator
T1 sequence (P21147 1-510): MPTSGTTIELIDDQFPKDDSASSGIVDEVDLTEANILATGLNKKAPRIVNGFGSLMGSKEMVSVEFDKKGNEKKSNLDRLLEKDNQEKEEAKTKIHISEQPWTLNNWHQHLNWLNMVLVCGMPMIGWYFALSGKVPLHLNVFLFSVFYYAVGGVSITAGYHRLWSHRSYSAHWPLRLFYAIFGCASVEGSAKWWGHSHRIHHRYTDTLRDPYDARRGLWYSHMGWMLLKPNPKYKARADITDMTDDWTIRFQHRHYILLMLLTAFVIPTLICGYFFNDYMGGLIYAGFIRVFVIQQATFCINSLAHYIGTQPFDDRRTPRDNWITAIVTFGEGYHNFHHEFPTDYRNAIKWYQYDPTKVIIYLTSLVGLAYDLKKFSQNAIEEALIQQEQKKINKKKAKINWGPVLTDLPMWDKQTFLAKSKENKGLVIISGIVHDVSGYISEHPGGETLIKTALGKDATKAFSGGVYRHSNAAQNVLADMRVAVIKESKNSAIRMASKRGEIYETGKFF
Kind of experiment: Growth inhibition of yeast expressing Ole1 as sole desaturase. The class given is cell-based. To be noted: yeast expressing Ole1 as sole desaturase. As for the experimental part: (§1) Strain ole1Δ (yeast ole1 deletion mutant) was constructed by deleting OLE1 with NAT-MX6 in BY4741, amplifying the deletion cassette from the genomic DNA of the resulting strain with primers flanking the ORF by 1000 bp upstream and downstream, transforming the resulting deletion cassette into W303 pdr1Δ pdr3Δ, and plating transformants on YPD media containing G418 (200 μg/mL) and nourseothricin (100 μg/mL) with 0.01% TWEEN®-20 and 0.5 mM oleic and palmitoleic acids.
(§2) The coding sequence of yeast OLE1 was also cloned into this plasmid). These clones were then transformed into the ole1Δ strain and plated on CSM-Ura media (CSM lacking uracil) with 2% glucose (w/v) and independent colonies were isolated and amplified.
(§3) All compound profiling experiments were performed using the same basic protocol. Different genetic backgrounds (e.g., gene deletions) or conditions (e.g., addition of oleic and palmitoleic acid) were replaced as indicated below.
(§4) Yeast were cultured using standard techniques in complete synthetic media (CSM) and yeast nitrogen base supplemented with 2% (w/v) carbon source (glucose, raffinose, or galactose) to regulate the expression of the toxic disease protein. An initial starter culture was inoculated in 3 mL CSM-Glucose media and incubated overnight in a 30° C. shaker incubator (225 rpm). Saturated morning cultures were then diluted 1:20 in fresh CSM-Raffinose media and grown for 6 h to an OD600 (optical density) of ˜0.4-0.8 at 30° C. with shaking.
(§5) Compound administration was performed in two separate steps. First, 15 μL of CSM-Galactose (induces expression of toxic protein) was dispensed into clear 384 well assay plates using a MULTIDROP™ Combi reagent dispenser. […] The cultures described above were then diluted to a 2× concentration (0.03 and 0.08 for alpha-synuclein and ApoE, final OD600 of 0.015 and 0.04) in CSM-Galactose. For wild-type and Ole1/SCD1/SCD5 plasmid-containing strains, the 2× cell density was 0.02. […] For 96-well assays (FIGS. 1A and 1B), compound dilutions in DMSO were generated in 96 well plates and 1 μL was manually pipetted into 96 well clear bottom assay plates.
(§6) For experiments using a plasmid-borne copy of Ole1, SCD1, or SCD5 (FIGS. 3B, 6, and 7), media lacking uracil (SX-Ura, where X is glucose, raffinose, or galactose), was used for all steps of the compound profiling protocol to ensure its maintenance throughout the assay.
(§7) After yeast delivery, assay plates were incubated under humidified conditions at 30° C. for 24 to 40 h. ApoE4 rescue experiments were stopped at 24 h, aSyn experiments at 40 h, Ole1 at 24 h, and SCD1/SCD5 at 40 h. The growth of yeast was monitored by reading the OD600 of each well using a microplate reader (Perkin Elmer EnVision™).

The test system of experiment [1] is yeast strains expressing the human protein ApoE4. The experiment in a line: Yeast rescue assay, ApoE4 toxicity (OD600 growth). The class given is cell-based. Conditions: 24 h. As for the experimental part: (§8) In a standard yeast assay, a single-use aliquot of cells was thawed on ice and diluted into CSM/glucose (5 mL). Cultures were grown for 8 hours at 30° C. This pre-growth enables the yeast to exit the thaw and begin to grow without expressing aSyn or ApoE4. After 8 hours, cell density (OD600) was determined and cultures diluted to an OD600 of 0.01 in CSM/raffinose for an overnight culture phase at 30° C. During this period, the active glucose repression of the GAL1 promoter was relieved; however, expression of the α-Syn/ApoE4 genes were not yet induced. After ˜16 hours of growth, cultures attain an OD600 of 0.4-0.8 and were ready to apply to assay plates containing compound.
Compound profiling assays were executed in clear-bottom 384 well plates. First, compound plates were thawed at room temperature for 45′, centrifuged at 1,000×g for 1 minute, and the foil removed. Clear 384 well assay plates were then filled with 15 μL of CSM/galactose. Both compound and media-containing plates were arranged on the Janus workstation and a compound pin tool (384×100 nL slotted pins) used to deliver 100 nL of compounds to each well according to the well map of the compound plate. Based on the previous serial dilution, the final concentration of compound ranged from […] to 12.5 nM. The pin tool was washed iteratively with both 50% DMSO and 100% ethanol between each assay plate. After delivering compound to each assay plate, the overnight CSM/raffinose aSyn or ApoE4 cultures were added at a 2× cell density (0.04 for aSyn and 0.08 for ApoE4) in CSM/galactose to achieve a final assay OD600 of 0.02 and 0.04 for aSyn and ApoE, respectively. […] The OD600 of each assay plate was then read with a microplate reader (e.g., Perkin Elmer Envision).
The efficacy and potency of compounds were calculated according to the following. […] The efficacy (percent above DMSO, herein referred to as “Emax”) was calculated according to the equation: (Experimental well−DMSO control well)/(DMSO control well)*100. […]

For experiment [2], the target named is T2, SCD5 (Homo sapiens, UniProt Q86SK9).
T2 construct: host or cells: S. cerevisiae ole1Δ strain, plasmid pRS316 with TDH3 promoter and CYC1 terminator
T2 sequence (Q86SK9 1-330): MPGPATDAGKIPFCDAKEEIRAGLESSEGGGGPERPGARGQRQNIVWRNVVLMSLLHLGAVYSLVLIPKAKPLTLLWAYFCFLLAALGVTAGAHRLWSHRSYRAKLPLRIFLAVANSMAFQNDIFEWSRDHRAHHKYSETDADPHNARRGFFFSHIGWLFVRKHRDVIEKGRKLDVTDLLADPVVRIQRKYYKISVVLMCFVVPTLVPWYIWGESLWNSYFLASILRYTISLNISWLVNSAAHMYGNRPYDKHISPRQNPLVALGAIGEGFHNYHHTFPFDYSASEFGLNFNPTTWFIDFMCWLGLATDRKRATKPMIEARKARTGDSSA
The experiment in a line: Growth inhibition of humanized yeast expressing SCD5 as sole desaturase. The class given is cell-based. To be noted: humanized yeast expressing SCD5. The method, then: as §1, §2, §3, §4, §5, §6, §7

The target in experiment [3] is T3, SCD1 (Homo sapiens, UniProt O00767).
T3 construct: host or cells: S. cerevisiae ole1Δ strain, plasmid pRS316 with TDH3 promoter and CYC1 terminator
T3 sequence (O00767 1-359): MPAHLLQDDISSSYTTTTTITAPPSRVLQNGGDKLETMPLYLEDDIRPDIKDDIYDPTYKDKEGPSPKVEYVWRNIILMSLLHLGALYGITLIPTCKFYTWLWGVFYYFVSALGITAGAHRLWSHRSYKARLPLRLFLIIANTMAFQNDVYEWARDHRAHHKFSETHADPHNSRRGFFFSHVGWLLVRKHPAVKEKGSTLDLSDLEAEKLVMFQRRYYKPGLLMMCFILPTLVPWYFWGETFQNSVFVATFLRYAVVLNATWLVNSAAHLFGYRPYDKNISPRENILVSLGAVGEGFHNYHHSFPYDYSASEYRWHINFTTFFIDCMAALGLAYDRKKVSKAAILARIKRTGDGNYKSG
The experiment in a line: Growth inhibition of humanized yeast expressing SCD1 as sole desaturase. The class given is cell-based. To be noted: humanized yeast expressing SCD1. In a few lines:
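ole1Δ yeast (W303 pdr1Δ pdr3Δ background) carried plasmid-borne human SCD1, human SCD5 or yeast Ole1 as the sole desaturase and were grown in uracil-lacking galactose medium in 384-well plates. Starting 2× density was OD600 0.02, with incubation at 30 °C. Growth was read as OD600 at 24 h for Ole1 and at 40 h for SCD1 and SCD5.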

Experiment [4] deals with yeast strains expressing the human protein α-synuclein. Kind of experiment: Yeast rescue assay, α-synuclein toxicity (OD600 growth). The experiment is classed as cell-based. To be noted: 40 h; for EC50: read-out: α-Syn EC50. As for the experimental part:
as §8
Compound profiling assays were executed in clear-bottom 384 well plates. First, compound plates were thawed at room temperature for 45′, centrifuged at 1,000×g for 1 minute, and the foil removed. Clear 384 well assay plates were then filled with 15 μL of CSM/galactose. Both compound and media-containing plates were arranged on the Janus workstation and a compound pin tool (384×100 nL slotted pins) used to deliver 100 nL of compounds to each well according to the well map of the compound plate. Based on the previous serial dilution, the final concentration of compound ranged from […] to 12.5 nM. The pin tool was washed iteratively with both 50% DMSO and 100% ethanol between each assay plate. After delivering compound to each assay plate, the overnight CSM/raffinose aSyn or ApoE4 cultures were added at a 2× cell density (0.04 for aSyn and 0.08 for ApoE4) in CSM/galactose to achieve a final assay OD600 of 0.02 and 0.04 for aSyn and ApoE, respectively. The cultures (15 μL per well) were then dispensed to the compound-containing 384 well assay plates using an automated plate filler. Plates were incubated in a humidified 30° C. incubator for 40 or 24 hours for aSyn and ApoE4, respectively. The OD600 of each assay plate was then read with a microplate reader (e.g., Perkin Elmer Envision).
The efficacy and potency of compounds were calculated according to the following. Raw data (OD600 values) were first background corrected to account for OD600 contributed by the plate and media itself. The efficacy (percent above DMSO, herein referred to as “Emax”) was calculated according to the equation: (Experimental well−DMSO control well)/(DMSO control well)*100. […] Normalized dose-response data was fit with a logistic regression curve using Spotfire (TIBCO), or similar curve-fitting software package. EC50 values were then reported along with EMax to provide both efficacy and potency measures for each analog and enable further compound design.

Another experiment deals with T4, yeast OLE1 (Saccharomyces cerevisiae, UniProt P21147).
T4 construct: expressed in transfected cells; host or cells: S. cerevisiae ole1Δ strain (W303 pdr1Δ pdr3Δ background), plasmid pRS316 with TDH3 promoter and CYC1 terminator
T4 sequence (P21147 1-510): T1 sequence (P21147 1-510)
The experiment in a line: Growth of yeast surviving solely on yeast OLE1. Conditions: percent of the DMSO-treated condition. The experiment is classed as cell-based. The method, then: (§9) FIG. 6 is a series of graphs showing that commercial Scd inhibitors target human SCD1/SCD5 in yeast. Yeast surviving solely on yeast OLE1, or human SCD1 or SCD5, were treated with four commercial Scd inhibitors at indicated concentrations. Data are expressed as a percent of the DMSO-treated condition.
(§10) FIG. 7 is a series of graphs showing that 1,2,4-oxadiazoles target human SCD1 and SCD5. Three “SCD” strains expressing yeast OLE1 or human SCD1 or SCD5 were treated with five representative 1,2,4-oxadiazoles and a cycloheximide toxicity control at concentrations indicated on the logic x-axis. The y-axis indicates the percent of the DMSO-treated condition. […] Approximately one half of all (250) 1,2,4-oxadiazoles tested inhibited SCD1 or SCD5 in a manner that was reversed by oleic/palmitoleic acid treatment.

For experiment [5], the target named is T3, SCD1. Kind of experiment: Growth of yeast surviving solely on human SCD1. The experiment is classed as cell-based. To be noted: percent of the DMSO-treated condition. The method, then:
as §9, §10

Experiment [6] concerns the target T2, SCD5. Kind of experiment: Growth of yeast surviving solely on human SCD5. The experiment is classed as cell-based, yeast expressing human SCD5. To be noted: percent of the DMSO-treated condition. As for the experimental part:
as §9, §10

`Cc1ccc(-c2noc(C3CCN(C(=O)C4CC(=O)N(c5ccc(C)c(C)c5)C4)CC3)n2)cc1` (centres unmarked) [Compound 61]: on Ole1, inhibition was half-maximal at 40.9 µM (IC50) and the “OLE1 % Max Inhibition” value was 71.50%. The EC50 – broadly, the concentration needed to bring the measured effect to its halfway point – in experiment [1] (Homo sapiens) was 19.4 µM. Moreover, in experiment [1] (Homo sapiens, percent above DMSO), the Emax came out at 465%. Besides, at SCD5 [2], the “SCD5 % Max Inhibition” value is recorded as 13.18%. For the same compound, the “SCD1 % Max Inhibition” value on SCD1 [3] came to 2.37%. In addition, the EC50 in experiment [4] was determined as 19.7 µM. In addition, the “α-Syn Emax” value in experiment [4] (percent above DMSO) worked out at 229%.
In the case of `CCOc1ccc(-c2noc(C3CCN(C(=O)[C@@H]4CC[C@H](c5ccccc5)N4)CC3)n2)cc1OC` [compound 119], the IC50 on SCD5 [2] and against SCD1 [3] was over 45 µM throughout. The Emax in experiment [4] (Homo sapiens, percent above DMSO, read-out: α-Syn Emax) turned out to be 61%. Moreover, the EC50 in experiment [4] (Homo sapiens) turned out to be 20.9 µM.
Turning to `C[C@@H]1C[C@@H]([C@H](O)CC2CC(=O)NC(=O)C2)C(=O)[C@@H](C)C1` [Cyclohexamide, cycloheximide], the “growth of Ole1-expressing yeast” value at yeast OLE1 is on record as “inhibited growth of all three strains with the same potency”. For the same compound, the “growth of SCD1-expressing yeast” value at SCD1 [5] is “inhibited growth of all three strains with the same potency”. Besides, on SCD5 [6], the “growth of SCD5-expressing yeast” value is “inhibited growth of all three strains with the same potency”.
Take `CCOc1ccc(-c2noc(C3CCN(C(=O)N4CCCCC4)CC3)n2)cc1OC` [Compound 53]: the “ApoE4 Emax” value in experiment [1] (percent above DMSO) amounted to 296%. Also, the “α-Syn Emax” value in experiment [4] (percent above DMSO) is recorded as 81%.
